Key:
Hepatitis C virus [1] = assay: Antiviral activity against HCV genotype 3a by replicon assay; assay type: functional, organism-based, Hepacivirus hominis
Hepatitis C virus [2] = assay: Antiviral activity against HCV genotype 1a by replicon assay; assay type: functional, organism-based, Hepacivirus hominis; settings: subtype 1a
[3] = biological target: T1, Nuclear receptor subfamily 1 group I member 2 (Homo sapiens, UniProt O75469); assay: Activation of PXR (unknown origin); assay type: ADME
T1 sequence (O75469 whole entry): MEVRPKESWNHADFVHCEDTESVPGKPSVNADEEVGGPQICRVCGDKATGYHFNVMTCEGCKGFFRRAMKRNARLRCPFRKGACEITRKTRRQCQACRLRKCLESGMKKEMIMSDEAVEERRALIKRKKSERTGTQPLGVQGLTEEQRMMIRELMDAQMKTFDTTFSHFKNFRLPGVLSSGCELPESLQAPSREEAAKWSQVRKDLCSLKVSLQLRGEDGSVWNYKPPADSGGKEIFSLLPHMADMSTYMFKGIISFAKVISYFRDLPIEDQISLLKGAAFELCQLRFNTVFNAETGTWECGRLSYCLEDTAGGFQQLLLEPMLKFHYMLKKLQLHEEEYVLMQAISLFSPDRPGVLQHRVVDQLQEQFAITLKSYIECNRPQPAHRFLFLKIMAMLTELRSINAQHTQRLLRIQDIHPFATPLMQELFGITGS

Hepatitis C virus [4] = assay: Antiviral activity against HCV genotype 1a expressing NS5A Y93H mutant by replicon assay; assay type: functional, organism-based, Hepacivirus hominis; settings: subtype 1a
Hepatitis C virus [5] = assay: Antiviral activity against HCV genotype 2a by replicon assay; assay type: functional, organism-based, Hepacivirus hominis
Hepatitis C virus [6] = assay: Antiviral activity against HCV genotype 1b by replicon assay; assay type: functional, organism-based, Hepacivirus hominis
Hepatitis C virus [7] = assay: Antiviral activity against HCV genotype 2b by replicon assay; assay type: functional, organism-based, Hepacivirus hominis

Work on `COC(=O)N[C@H](C(=O)N1CCC[C@H]1c1ncc(-c2ccc(-c3cc4cc(-c5cnc([C@@H]6CCCN6C(=O)[C@@H](NC(=O)OC)C(C)C)[nH]5)ccc4o3)cc2)[nH]1)C(C)C` yielded an EC50 (Hepatitis C virus [1]) of 4 nM, an EC50 (Hepatitis C virus [2]) of 0.01 nM and an EC50 [3] of 3300 nM. It also gave an EC50 (Hepatitis C virus [4]) of 24 nM, an EC50 (Hepatitis C virus [5]) of 0.4 nM and an EC50 (Hepatitis C virus [6]) of 0.001 nM. It also gave an EC50 (Hepatitis C virus [7]) of 286 nM.

— ChEMBL document CHEMBL3763064, “Discovery of silyl proline containing HCV NS5A inhibitors with pan-genotype activity: SAR development” (Bioorg Med Chem Lett, 2016)
